Reference: PMC6422671 (British Journal of Clinical Pharmacology, 2019)

Assay: Clinical laboratory findings: haematology; data mean (standard deviation)
Format: in vivo, healthy men
Excerpt: Data are mean (standard deviation).

With `C[C@@H](N)c1cc(Cl)ccc1Cn1c(=S)[nH]c(=O)c2[nH]ccc21` [AZD4831] the Basophils (45 mg fed, 24 h) was 0.03 (0.01) 10^9 L^–1, the Eosinophils (45 mg fed, 24 h) was 0.19 (0.10) 10^9 L^–1 and the “Erythrocyte MCH” value (45 mg fed, 24 h) was 30.2 (2.0) pg. The “Erythrocyte MCH concentration” value (45 mg fed, 24 h) was 343 (14) g L^–1, the “Erythrocyte MCV” value (45 mg fed, 24 h) was 88.0 (5.6) fL and the Erythrocytes (45 mg fed, 24 h) was 4.74 (0.15) 10^12 L^–1. For the same compound, the Haematocrit (45 mg fed, 24 h) was 0.42 (0.03) ratio, the Haemoglobin (45 mg fed, 24 h) was 143 (9) g L^–1 and the Leukocytes (45 mg fed, 24 h) was 5.51 (0.85) 10^9 L^–1. The Lymphocytes (45 mg fed, 24 h) was 1.76 (0.61) 10^9 L^–1, the Monocytes (45 mg fed, 24 h) was 0.34 (0.16) 10^9 L^–1 and the Neutrophils (45 mg fed, 24 h) was 3.11 (0.79) 10^9 L^–1. The Platelets (45 mg fed, 24 h) was 227 (50) 10^9 L^–1, the Reticulocytes (45 mg fed, 24 h) was 77.4 (5.4) 10^9 L^–1 and the Basophils (45 mg fed, 48 h) was 0.03 (0.02) 10^9 L^–1. The Eosinophils (45 mg fed, 48 h) was 0.20 (0.15) 10^9 L^–1, the “Erythrocyte MCH” value (45 mg fed, 48 h) was 30.2 (1.7) pg and the “Erythrocyte MCH concentration” value (45 mg fed, 48 h) was 343 (8) g L^–1. The “Erythrocyte MCV” value (45 mg fed, 48 h) was 88.2 (5.8) fL, the Erythrocytes (45 mg fed, 48 h) was 4.89 (0.11) 10^12 L^–1 and the Haematocrit (45 mg fed, 48 h) was 0.43 (0.03) ratio. The Haemoglobin (45 mg fed, 48 h) was 148 (9) g L^–1, the Leukocytes (45 mg fed, 48 h) was 5.93 (1.07) 10^9 L^–1 and the Lymphocytes (45 mg fed, 48 h) was 1.85 (0.77) 10^9 L^–1. The Monocytes (45 mg fed, 48 h) was 0.40 (0.16) 10^9 L^–1, the Neutrophils (45 mg fed, 48 h) was 3.35 (1.20) 10^9 L^–1 and the Platelets (45 mg fed, 48 h) was 233 (51) 10^9 L^–1. The Reticulocytes (45 mg fed, 48 h) was 84.5 (7.9) 10^9 L^–1, the Basophils (45 mg fed, follow up) was 0.04 (0.01) 10^9 L^–1 and the Eosinophils (45 mg fed, follow up) was 0.18 (0.12) 10^9 L^–1. The “Erythrocyte MCH” value (45 mg fed, follow up) was 30.7 (1.0) pg, the “Erythrocyte MCH concentration” value (45 mg fed, follow up) was 347 (11) g L^–1 and the “Erythrocyte MCV” value (45 mg fed, follow up) was 88.3 (5.1) fL. The Erythrocytes (45 mg fed, follow up) was 4.72 (0.16) 10^12 L^–1, the Haematocrit (45 mg fed, follow up) was 0.42 (0.04) ratio and the Haemoglobin (45 mg fed, follow up) was 145 (9) g L^–1. The Leukocytes (45 mg fed, follow up) was 6.37 (1.60) 10^9 L^–1, the Lymphocytes (45 mg fed, follow up) was 1.79 (0.37) 10^9 L^–1 and the Monocytes (45 mg fed, follow up) was 0.39 (0.12) 10^9 L^–1. The Neutrophils (45 mg fed, follow up) was 3.85 (1.22) 10^9 L^–1, the Platelets (45 mg fed, follow up) was 250 (62) 10^9 L^–1 and the Reticulocytes (45 mg fed, follow up) was 82.9 (10.8) 10^9 L^–1. The Basophils (135 mg fasted, 24 h) was 0.02 (0.01) 10^9 L^–1, the Eosinophils (135 mg fasted, 24 h) was 0.11 (0.07) 10^9 L^–1 and the “Erythrocyte MCH” value (135 mg fasted, 24 h) was 31.0 (0.4) pg. For the same compound, the “Erythrocyte MCH concentration” value (135 mg fasted, 24 h) was 354 (5) g L^–1, the “Erythrocyte MCV” value (135 mg fasted, 24 h) was 87.5 (1.9) fL and the Erythrocytes (135 mg fasted, 24 h) was 4.69 (0.26) 10^12 L^–1. The Haematocrit (135 mg fasted, 24 h) was 0.41 (0.02) ratio, the Haemoglobin (135 mg fasted, 24 h) was 145 (8) g L^–1 and the Leukocytes (135 mg fasted, 24 h) was 5.11 (1.13) 10^9 L^–1. For the same compound, the Lymphocytes (135 mg fasted, 24 h) was 1.52 (0.40) 10^9 L^–1, the Monocytes (135 mg fasted, 24 h) was 0.35 (0.12) 10^9 L^–1 and the Neutrophils (135 mg fasted, 24 h) was 3.00 (0.79) 10^9 L^–1. For the same compound, the Platelets (135 mg fasted, 24 h) was 200 (25) 10^9 L^–1, the Reticulocytes (135 mg fasted, 24 h) was 72.4 (19.9) 10^9 L^–1 and the Basophils (135 mg fasted, 48 h) was 0.03 (0.01) 10^9 L^–1. The Eosinophils (135 mg fasted, 48 h) was 0.12 (0.07) 10^9 L^–1, the “Erythrocyte MCH” value (135 mg fasted, 48 h) was 30.9 (0.4) pg and the “Erythrocyte MCH concentration” value (135 mg fasted, 48 h) was 353 (7) g L^–1. The “Erythrocyte MCV” value (135 mg fasted, 48 h) was 87.4 (1.6) fL, the Erythrocytes (135 mg fasted, 48 h) was 4.68 (0.30) 10^12 L^–1 and the Haematocrit (135 mg fasted, 48 h) was 0.41 (0.03) ratio. For the same compound, the Haemoglobin (135 mg fasted, 48 h) was 144 (9) g L^–1, the Leukocytes (135 mg fasted, 48 h) was 5.28 (1.23) 10^9 L^–1 and the Lymphocytes (135 mg fasted, 48 h) was 1.66 (0.47) 10^9 L^–1. The Monocytes (135 mg fasted, 48 h) was 0.37 (0.11) 10^9 L^–1, the Neutrophils (135 mg fasted, 48 h) was 3.00 (0.83) 10^9 L^–1 and the Platelets (135 mg fasted, 48 h) was 202 (29) 10^9 L^–1. For the same compound, the Reticulocytes (135 mg fasted, 48 h) was 70.1 (15.1) 10^9 L^–1, the Basophils (135 mg fasted, follow up) was 0.03 (0.01) 10^9 L^–1 and the Eosinophils (135 mg fasted, follow up) was 0.14 (0.09) 10^9 L^–1. The “Erythrocyte MCH” value (135 mg fasted, follow up) was 30.8 (0.5) pg, the “Erythrocyte MCH concentration” value (135 mg fasted, follow up) was 350 (11) g L^–1 and the “Erythrocyte MCV” value (135 mg fasted, follow up) was 88.2 (1.7) fL. The Erythrocytes (135 mg fasted, follow up) was 4.62 (0.25) 10^12 L^–1, the Haematocrit (135 mg fasted, follow up) was 0.41 (0.02) ratio and the Haemoglobin (135 mg fasted, follow up) was 143 (9) g L^–1. For the same compound, the Leukocytes (135 mg fasted, follow up) was 6.80 (3.32) 10^9 L^–1, the Lymphocytes (135 mg fasted, follow up) was 1.51 (0.26) 10^9 L^–1 and the Monocytes (135 mg fasted, follow up) was 0.48 (0.32) 10^9 L^–1. The Neutrophils (135 mg fasted, follow up) was 4.46 (2.99) 10^9 L^–1, the Platelets (135 mg fasted, follow up) was 218 (24) 10^9 L^–1 and the Reticulocytes (135 mg fasted, follow up) was 82.8 (19.3) 10^9 L^–1. The Basophils (405 mg fasted, 24 h) was 0.04 (0.01) 10^9 L^–1, the Eosinophils (405 mg fasted, 24 h) was 0.18 (0.15) 10^9 L^–1 and the “Erythrocyte MCH” value (405 mg fasted, 24 h) was 30.8 (1.5) pg. For the same compound, the “Erythrocyte MCH concentration” value (405 mg fasted, 24 h) was 345 (8) g L^–1, the “Erythrocyte MCV” value (405 mg fasted, 24 h) was 89.4 (3.8) fL and the Erythrocytes (405 mg fasted, 24 h) was 4.81 (0.31) 10^12 L^–1. For the same compound, the Haematocrit (405 mg fasted, 24 h) was 0.43 (0.01) ratio, the Haemoglobin (405 mg fasted, 24 h) was 148 (6) g L^–1 and the Leukocytes (405 mg fasted, 24 h) was 5.53 (1.12) 10^9 L^–1. For the same compound, the Lymphocytes (405 mg fasted, 24 h) was 1.40 (0.19) 10^9 L^–1, the Monocytes (405 mg fasted, 24 h) was 0.34 (0.09) 10^9 L^–1 and the Neutrophils (405 mg fasted, 24 h) was 3.47 (0.79) 10^9 L^–1. For the same compound, the Platelets (405 mg fasted, 24 h) was 190 (23) 10^9 L^–1, the Reticulocytes (405 mg fasted, 24 h) was 68.5 (16.4) 10^9 L^–1 and the Basophils (405 mg fasted, 48 h) was 0.03 (0.01) 10^9 L^–1. For the same compound, the Eosinophils (405 mg fasted, 48 h) was 0.24 (0.26) 10^9 L^–1, the “Erythrocyte MCH” value (405 mg fasted, 48 h) was 31.0 (1.6) pg and the “Erythrocyte MCH concentration” value (405 mg fasted, 48 h) was 347 (7) g L^–1. For the same compound, the “Erythrocyte MCV” value (405 mg fasted, 48 h) was 89.4 (3.7) fL, the Erythrocytes (405 mg fasted, 48 h) was 4.67 (0.22) 10^12 L^–1 and the Haematocrit (405 mg fasted, 48 h) was 0.42 (0.01) ratio. For the same compound, the Haemoglobin (405 mg fasted, 48 h) was 145 (5) g L^–1, the Leukocytes (405 mg fasted, 48 h) was 5.53 (1.14) 10^9 L^–1 and the Lymphocytes (405 mg fasted, 48 h) was 1.51 (0.30) 10^9 L^–1. For the same compound, the Monocytes (405 mg fasted, 48 h) was 0.40 (0.14) 10^9 L^–1, the Neutrophils (405 mg fasted, 48 h) was 3.22 (0.62) 10^9 L^–1 and the Platelets (405 mg fasted, 48 h) was 187 (20) 10^9 L^–1. The Reticulocytes (405 mg fasted, 48 h) was 66.3 (20.0) 10^9 L^–1, the Basophils (405 mg fasted, follow up) was 0.04 (0.01) 10^9 L^–1 and the Eosinophils (405 mg fasted, follow up) was 0.27 (0.27) 10^9 L^–1. For the same compound, the “Erythrocyte MCH” value (405 mg fasted, follow up) was 31.0 (1.1) pg, the “Erythrocyte MCH concentration” value (405 mg fasted, follow up) was 345 (5) g L^–1 and the “Erythrocyte MCV” value (405 mg fasted, follow up) was 89.8 (3.6) fL. For the same compound, the Erythrocytes (405 mg fasted, follow up) was 4.83 (0.35) 10^12 L^–1, the Haematocrit (405 mg fasted, follow up) was 0.43 (0.02) ratio and the Haemoglobin (405 mg fasted, follow up) was 149 (8) g L^–1. The Leukocytes (405 mg fasted, follow up) was 5.84 (1.41) 10^9 L^–1, the Lymphocytes (405 mg fasted, follow up) was 1.43 (0.19) 10^9 L^–1 and the Monocytes (405 mg fasted, follow up) was 0.40 (0.08) 10^9 L^–1. The Neutrophils (405 mg fasted, follow up) was 3.54 (1.02) 10^9 L^–1, the Platelets (405 mg fasted, follow up) was 205 (21) 10^9 L^–1 and the Reticulocytes (405 mg fasted, follow up) was 78.6 (19.4) 10^9 L^–1.
